# Measurements: US10273241B2 (President and Fellows of Harvard College, priority 2013, dated 2019)
# Tested on: MOLM-14
# Assay: Cell growth assay, MOLM-14 AML cell line
# Format: cell-based, human
# Conditions: Homo sapiens, MOLM-14, 240 h; day 10; cells passaged, fresh compound added on days 3 and 7; read-out: MOL M14 G150 day 10
# Experimental: (§1) For all other cell lines, compounds were serially diluted in medium and dispensed in triplicate in 96-well plates (0.1% DMSO final for assay) followed by the addition of exponentially growing cells at densities ranging from 5,000 to 30,000 cells/well. Cells were also seeded into 2 additional control wells containing vehicle (0.1% DMSO). […] To determine the estimated cell number in each well, cells that were counted in the control well were diluted 3-fold for an 8-point dilution series, and transferred to 384-well plates in duplicate, 20 μL per well. Cells in all other wells were diluted 4-fold and transferred to 384-well plates in duplicate, 20 μL per well. 20 μL of CellTiter-Glo (Promega) was subsequently added to all wells and luminescence was detected using a SPECTRAmax M3. The control well dilution series was fit to a linear regression and used as a standard for calculating the estimated cell number for each well. For days 7 and 10, total estimated cell number represents the split-adjusted theoretical cell number.
row,GI50,SMILES
1,0.16 µM,"C[C@]12CC=C3C=C4CC[C@H](N5CC[C@@H](F)C5)C[C@]45CC[C@]3(O5)[C@@H]1CC[C@@H]2c1ccc2ccncc2c1 [35B, β-(R)-3-fluoropyrrolidine]"
2,0.095 µM,"C[C@]12CC=C3C=C4CC[C@H](N5CC[C@H](F)C5)C[C@]45CC[C@]3(O5)[C@@H]1CC[C@@H]2c1ccc2ccncc2c1 [36B, β-(S)-3-fluoropyrrolidine]"
3,0.2 µM,"C[C@]12CC=C3C=C4CC[C@H](N5CCC(F)(F)C5)C[C@]45CC[C@]3(O5)[C@@H]1CC[C@@H]2c1ccc2ccncc2c1 [37B, β-3,3-difluoropyrrolidine]"
4,0.01 µM,"C[C@]12CC=C3C=C4CC[C@H](N5CCC6(COC6)C5)C[C@]45CCC3(O5)[C@@H]1CCC2c1ccc2ccncc2c1 (stereo partly drawn) [38B, β-2-oxa-6-azaspiro[3.4]octane]"
5,0.03 µM,"C[C@]12CC=C3C=C4CC[C@H](NC5CC5)C[C@]45CCC3(O5)[C@@H]1CCC2c1ccc2ccncc2c1 (stereo partly drawn) [39B, β-cyclopropylamine]"
6,0.025 µM,"CN(C1CC1)[C@H]1CCC2=CC3=CC[C@]4(C)C(c5ccc6ccncc6c5)CC[C@H]4C34CC[C@]2(C1)O4 (stereo partly drawn) [40B, β-Cyclopropylmethylamine]"
7,0.016 µM,"CC1(N[C@H]2CCC3=CC4=CC[C@]5(C)C(c6ccc7ccncc7c6)CC[C@H]5C45CC[C@]3(C2)O5)COC1 (stereo partly drawn) [41B, β-3-methyl-3-oxetanamine]"
8,0.02 µM,"CN(CC1(C)COC1)[C@H]1CCC2=CC3=CC[C@]4(C)[C@@H](c5ccc6ccncc6c5)CC[C@H]4[C@@]34CCC2(C1)O4 [42B, β-N-methyl-1-(3-methyl-3-oxetanyl)methanamine]"
9,0.2 µM,"CC(C)(C)N[C@@H]1CCC2=CC3=CC[C@]4(C)C(c5ccc6ccncc6c5)CC[C@H]4C34CC[C@]2(C1)O4 (stereo partly drawn) [43A, α-t-butylamine]"
10,0.15 µM,"CC(C)(C)N[C@H]1CCC2=CC3=CC[C@]4(C)C(c5ccc6ccncc6c5)CC[C@H]4C34CC[C@]2(C1)O4 (stereo partly drawn) [43B, β-t-butylamine]"
11,0.07 µM,"C[C@]12CC=C3C=C4CC[C@H](N)CC45CC[C@]3(O5)[C@@H]1CC[C@@H]2c1ccc2ccncc2c1 [62B, β-primaryamine]"
12,0.016 µM,C[C@]12CC=C3C=C4CC[C@H](N5C[C@H](O)C[C@H]5C(=O)O)C[C@]45CCC3(O5)[C@@H]1CCC2c1ccc2ccncc2c1 (stereo partly shown) [65B]
13,0.03 µM,"CC1(O)CN([C@@H]2CCC3=CC4=CC[C@]5(C)[C@@H](c6ccc7ccncc7c6)CC[C@H]5C45CC[C@]3(C2)O5)C1 [69A, α-hydroxymethylazetidine]"
14,0.012 µM,"C[C@]12CC=C3C=C4CC[C@@H](N5CC(O)C5)C[C@]45CCC3(O5)[C@@H]1CC[C@@H]2c1ccc2ccncc2c1 [70A, α-hydroxyazetidine]"
15,0.02 µM,C[C@]12CC=C3C=C4CC[C@@H](NCCS(N)(=O)=O)C[C@]45CCC3(O5)[C@@H]1CC[C@@H]2c1ccc2ccncc2c1 [71A]
16,0.05 µM,C[C@]12CC=C3C=C4CC[C@H](NCCS(N)(=O)=O)C[C@]45CCC3(O5)[C@@H]1CC[C@@H]2c1ccc2ccncc2c1 [71B]
17,0.004 µM,"C[C@]12CC=C3C=C4CC[C@@H](NCC5(O)COC5)CC45CC[C@]3(O5)[C@@H]1CC[C@@H]2c1ccc2ccncc2c1 [72A, α-hydroxyaminomethyloxetane]"

# Same assay, conditions: day 10; cells passaged, fresh compound added on days 3 and 7; read-out: MOL M14 G150 day 10
row,SMILES,GI50
1,"C[C@]12CC=C3C=C4CC[C@@H](O)CC45CC[C@]3(O5)[C@@H]1CC[C@@H]2c1ccc2ccncc2c1 [17A, α-alcohol]",0.006 µM
2,"CO[C@@H]1CCC2=CC3=CC[C@]4(C)[C@@H](c5ccc6ccncc6c5)CC[C@H]4[C@@]34CCC2(C1)O4 [64A, α-methylether]",0.045 µM
3,"CNC(=O)O[C@@H]1CCC2=CC3=CC[C@]4(C)[C@@H](c5ccc6ccncc6c5)CC[C@H]4[C@@]34CCC2(C1)O4 [68A, α-monomethylcarbamate]",0.15 µM

# Tested on: MV4;11
# Assay: Cell growth assay, MV4;11 AML cell line
# Format: cell-based, human
# Conditions: Homo sapiens, MV4-11, 240 h; day 10; cells passaged, fresh compound added on days 3 and 7; read-out: MV 4;11 GI50 day 10
# Experimental: as §1
row,GI50,SMILES
1,0.08 µM,"C[C@]12CC=C3C=C4CC[C@H](N5CC[C@@H](F)C5)C[C@]45CC[C@]3(O5)[C@@H]1CC[C@@H]2c1ccc2ccncc2c1 [35B, β-(R)-3-fluoropyrrolidine]"
2,0.019 µM,"C[C@]12CC=C3C=C4CC[C@H](N5CC[C@H](F)C5)C[C@]45CC[C@]3(O5)[C@@H]1CC[C@@H]2c1ccc2ccncc2c1 [36B, β-(S)-3-fluoropyrrolidine]"
3,0.065 µM,"C[C@]12CC=C3C=C4CC[C@H](N5CCC(F)(F)C5)C[C@]45CC[C@]3(O5)[C@@H]1CC[C@@H]2c1ccc2ccncc2c1 [37B, β-3,3-difluoropyrrolidine]"
4,0.01 µM,"C[C@]12CC=C3C=C4CC[C@H](N5CCC6(COC6)C5)C[C@]45CCC3(O5)[C@@H]1CCC2c1ccc2ccncc2c1 (stereo partly drawn) [38B, β-2-oxa-6-azaspiro[3.4]octane]"
5,0.017 µM,"C[C@]12CC=C3C=C4CC[C@H](NC5CC5)C[C@]45CCC3(O5)[C@@H]1CCC2c1ccc2ccncc2c1 (stereo partly drawn) [39B, β-cyclopropylamine]"
6,0.016 µM,"CN(C1CC1)[C@H]1CCC2=CC3=CC[C@]4(C)C(c5ccc6ccncc6c5)CC[C@H]4C34CC[C@]2(C1)O4 (stereo partly drawn) [40B, β-Cyclopropylmethylamine]"
7,0.008 µM,"CC1(N[C@H]2CCC3=CC4=CC[C@]5(C)C(c6ccc7ccncc7c6)CC[C@H]5C45CC[C@]3(C2)O5)COC1 (stereo partly drawn) [41B, β-3-methyl-3-oxetanamine]"
8,0.0075 µM,"CN(CC1(C)COC1)[C@H]1CCC2=CC3=CC[C@]4(C)[C@@H](c5ccc6ccncc6c5)CC[C@H]4[C@@]34CCC2(C1)O4 [42B, β-N-methyl-1-(3-methyl-3-oxetanyl)methanamine]"
9,0.175 µM,"CC(C)(C)N[C@@H]1CCC2=CC3=CC[C@]4(C)C(c5ccc6ccncc6c5)CC[C@H]4C34CC[C@]2(C1)O4 (stereo partly drawn) [43A, α-t-butylamine]"
10,0.095 µM,"CC(C)(C)N[C@H]1CCC2=CC3=CC[C@]4(C)C(c5ccc6ccncc6c5)CC[C@H]4C34CC[C@]2(C1)O4 (stereo partly drawn) [43B, β-t-butylamine]"
11,0.02 µM,"C[C@]12CC=C3C=C4CC[C@H](N)CC45CC[C@]3(O5)[C@@H]1CC[C@@H]2c1ccc2ccncc2c1 [62B, β-primaryamine]"
12,0.003 µM,C[C@]12CC=C3C=C4CC[C@H](N5C[C@H](O)C[C@H]5C(=O)O)C[C@]45CCC3(O5)[C@@H]1CCC2c1ccc2ccncc2c1 (stereo partly shown) [65B]
13,0.0095 µM,"CC1(O)CN([C@@H]2CCC3=CC4=CC[C@]5(C)[C@@H](c6ccc7ccncc7c6)CC[C@H]5C45CC[C@]3(C2)O5)C1 [69A, α-hydroxymethylazetidine]"
14,0.007 µM,"C[C@]12CC=C3C=C4CC[C@@H](N5CC(O)C5)C[C@]45CCC3(O5)[C@@H]1CC[C@@H]2c1ccc2ccncc2c1 [70A, α-hydroxyazetidine]"
15,0.002 µM,C[C@]12CC=C3C=C4CC[C@@H](NCCS(N)(=O)=O)C[C@]45CCC3(O5)[C@@H]1CC[C@@H]2c1ccc2ccncc2c1 [71A]
16,0.018 µM,C[C@]12CC=C3C=C4CC[C@H](NCCS(N)(=O)=O)C[C@]45CCC3(O5)[C@@H]1CC[C@@H]2c1ccc2ccncc2c1 [71B]
17,0.008 µM,"C[C@]12CC=C3C=C4CC[C@@H](NCC5(O)COC5)CC45CC[C@]3(O5)[C@@H]1CC[C@@H]2c1ccc2ccncc2c1 [72A, α-hydroxyaminomethyloxetane]"

# Same assay, conditions: day 10; cells passaged, fresh compound added on days 3 and 7; read-out: MV 4;11 GI50 day 10
row,SMILES,GI50
1,"C[C@]12CC=C3C=C4CC[C@@H](O)CC45CC[C@]3(O5)[C@@H]1CC[C@@H]2c1ccc2ccncc2c1 [17A, α-alcohol]",0.001 µM
2,"CO[C@@H]1CCC2=CC3=CC[C@]4(C)[C@@H](c5ccc6ccncc6c5)CC[C@H]4[C@@]34CCC2(C1)O4 [64A, α-methylether]",0.015 µM
3,"CNC(=O)O[C@@H]1CCC2=CC3=CC[C@]4(C)[C@@H](c5ccc6ccncc6c5)CC[C@H]4[C@@]34CCC2(C1)O4 [68A, α-monomethylcarbamate]",0.12 µM
